Experiment [1] deals with Nrf2 (Keap1-NRF2 nuclear translocation). Description: U2OS translocation assay (PathHunter U2OS Keap1-NRF2 Nuclear Translocation Cell Line). It is filed as cell-based. The method in brief: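 PathHunter U2OS line expressing Nrf2-enzyme-donor fusion and nuclear acceptor enzyme, 7 500 cells/well in Opti-MEM, 1% FBS. Compounds incubated 3 h at 37° C. Luminescence after 60 min with detection reagent, normalized between 1% DMSO and 10 μM andrographolide.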

A further experiment concerns the target T1, Keap1 (A321-C624) (h) (Homo sapiens, UniProt Q14145).
T1 construct: His-Thromb-KEAP1(A321-C624) acquired from Novalix (batch PU-P01) was immobilized covalently by amine coupling; His tag (N); thrombin cleavage site (Thromb) (N); purchased Novalix batch PU-P01
Briefly: Surface Plasmon Resonance binding assay to Kelch domain of KEAP1. The conditions noted are these: Biacore T200, 25° C., immobilized His-Thromb-KEAP1(A321-C624), single cycle kinetics, KD=kd/ka from 1:1 fit; read-out: Keap1 (A321-C624) (h) direct/SPR (KD). The method, boiled down: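 His-Thromb-KEAP1(A321-C624) amine-coupled on CM5 chip to 1250 RU; amine blank reference. Run at 25° C in HEPES pH 7.4, 150 mM NaCl, 3 mM EDTA, 1 mM TCEP, 0.05% P20, 5% DMSO; 180 s association, 720 s dissociation, 50 μL/min. KD = kd/ka from 1:1 kinetic fit, double-referenced, DMSO solvent-corrected.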

[2] abbreviates: read-out: CELLULAR U2OS EC50, U2OS Keap1-NRF2 nuclear translocation cells, 3 h incubation, luminescence, normalized between 1% DMSO and 10 μM andrographolide.
[3] abbreviates: Homo sapiens, U2OS, 3 h, read-out: CELLULAR U2OS EC50 (nM), U2OS Keap1-NRF2 nuclear translocation cells, 3 h incubation, luminescence, normalized between 1% DMSO and 10 μM andrographolide.

Like-named read-outs stand apart in the source and are kept apart here.

T1 sequence (Q14145 321-624): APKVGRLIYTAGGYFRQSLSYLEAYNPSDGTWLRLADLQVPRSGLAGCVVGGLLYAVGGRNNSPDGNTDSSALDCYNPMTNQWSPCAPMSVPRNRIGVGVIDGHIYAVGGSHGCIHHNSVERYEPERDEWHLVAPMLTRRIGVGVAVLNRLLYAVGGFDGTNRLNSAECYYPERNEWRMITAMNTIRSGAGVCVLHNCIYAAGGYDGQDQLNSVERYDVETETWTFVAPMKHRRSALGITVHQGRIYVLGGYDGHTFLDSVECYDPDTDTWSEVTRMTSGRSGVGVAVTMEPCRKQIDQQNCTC

As for `Cc1ccc2cc1CN1Cc3cc(ccc3OS1(=O)=O)OCc1ccccc1OCCCn1nnc3c(C)c(ccc31)C2CC(=O)O` (single isomer, unassigned) [Example 57b, [4,38-Dimethyl-34,34-dioxo-20,28,33-trioxa-34λ^6-thia-1,14,15,16-tetraazaheptacyclo[27.5.3.1^3,70.1^9,130.0^12,160.0^21,260.0^32,36]nonatriaconta-3(39),4,6,9(38),10,12,14,21,23,25,29,31,36-tridecaen-8-yl]acetic acid], the EC50 in experiment [1] (setting [2]) was found to be 2820 nM. The Kd on Keap1 (A321-C624) (h) was found to be 498 nM.
In the case of `Cc1ccc2cc1CN1Cc3cc(ccc3OS1(=O)=O)OCCN(c1ccccc1)CCn1nnc3c(C)c(ccc31)C2CC(=O)O` (single isomer, unassigned) [Example 58a, [4,32-Dimethyl-28,28-dioxo-19-phenyl-22,27-dioxa-28λ^6-thia-1,14,15,16,19-pentaazahexacyclo[21.5.3.1^3,70.1^9,130.0^12,160.0^26,30]tritriaconta-3(33),4,6,9(32),10,12,14,23,25,30-decaen-8-yl]acetic acid], in experiment [1] (setting [2]), the EC50 amounted to 90.4 nM. Also, the Kd at Keap1 (A321-C624) (h) was found to be 4.66 nM.
On the same counts, the results for `Cc1ccc2cc1CN1Cc3cc(ccc3OS1(=O)=O)OCCN(c1ccccc1)CCn1nnc3c(C)c(ccc31)C2CC(=O)O` (single isomer, unassigned) [Example 58b, [4,32-Dimethyl-28,28-dioxo-19-phenyl-22,27-dioxa-28λ^6-thia-1,14,15,16,19-pentaazahexacyclo[21.5.3.1^3,70.1^9,130.0^12,160.0^26,30]tritriaconta-3(33),4,6,9(32),10,12,14,23,25,30-decaen-8-yl]acetic acid] are 427 nM and 12.5 nM.
Regarding `COc1ccc2cc1CN1Cc3cc(ccc3OS1(=O)=O)OCCOCCn1nnc3c(C)c(ccc31)C2CC(=O)O` (single isomer, unassigned) [Example 59a, [4-Methoxy-32-methyl-28,28-dioxo-19,22,27-trioxa-28λ^6-thia-1,14,15,16-tetraazahexacyclo[21.5.3.1^3,70.1^9,130.0^12,160.0^26,30]tritriaconta-3(33),4,6,9(32),10,12,14,23,25,30-decaen-8-yl]acetic acid], the EC50 in experiment [1] (setting [3]) was determined as 311 nM. The Kd at Keap1 (A321-C624) (h) turned out to be 5.07 nM.
Regarding `Cc1ccc2cc1CN1Cc3cc(ccc3OS1(=O)=O)OCc1ccccc1CCn1nnc3c(C)c(ccc31)C2CC(=O)O` (single isomer, unassigned) [Example 62a, [4,36-Dimethyl-32,32-dioxo-26,31-dioxa-32λ^6-thia-1,14,15,16-tetraazaheptacyclo[25.5.3.1^3,70.1^9,130.0^12,160.0^19,240.0^30,34]heptatriaconta-3(37),4,6,9(36),10,12,14,19,21,23,27,29,34-tridecaen-8-yl]acetic acid], the EC50 in experiment [1] (setting [3]) is 177 nM. For the same molecule, the Kd on Keap1 (A321-C624) (h) was determined as 3 nM.
Turning to `Cc1ccc2cc1CN1Cc3cc(ccc3OS1(=O)=O)OCCSCCn1nnc3c(C)c(ccc31)C2CC(=O)O` (single isomer, unassigned) [Example 63a, [4,32-Dimethyl-28,28-dioxo-22,27-dioxa-19,28λ^6-dithia-1,14,15,16-tetraazahexacyclo[21.5.3.1^3,70.1^9,130.0^12,160.0^26,30]tritriaconta-3(33),4,6,9(32),10,12,14,23,25,30-decaen-8-yl]acetic acid], in experiment [1] (setting [3]), the EC50 is 57.1 nM. Further, the Kd at Keap1 (A321-C624) (h) was determined as 4.39 nM.
In the case of `Cc1ccc2cc1CN1Cc3c(ccc(c3Cl)OCCCCn3nnc4c(C)c(ccc43)C2CC(=O)O)OS1(=O)=O` (single isomer, unassigned) [Example 66a, [30-Chloro-4,31-dimethyl-27,27-dioxo-21,26-dioxa-27λ^6-thia-1,14,15,16-tetraazahexacyclo[20.5.3.1^3,70.1^9,130.0^12,160.0^25,29]dotriaconta-3(32),4,6,9(31),10,12,14,22,24,29-decaen-8-yl]acetic acid], the EC50 in experiment [1] (setting [2]) turned out to be 3.44 nM. Moreover, the Kd on Keap1 (A321-C624) (h) is 0.678 nM.
On the same counts, the results for `Cc1ccc2cc1CN1Cc3c(ccc(c3Cl)OCCCCn3nnc4c(C)c(ccc43)C2CC(=O)O)OS1(=O)=O` (single isomer, unassigned) [Example 66b, [30-Chloro-4,31-dimethyl-27,27-dioxo-21,26-dioxa-27λ^6-thia-1,14,15,16-tetraazahexacyclo[20.5.3.1^3,70.1^9,130.0^12,160.0^25,29]dotriaconta-3(32),4,6,9(31),10,12,14,22,24,29-decaen-8-yl]acetic acid] are 17.9 nM and 0.833 nM.
As for `Cc1ccc2cc1CN1Cc3cc(ccc3OS1(=O)=O)Oc1ccccc1NCCCn1nnc3c(C)c(ccc31)C2CC(=O)O` (single isomer, unassigned) [Example 71a, [4,37-Dimethyl-33,33-dioxo-27,32-dioxa-33λ^6-thia-1,14,15,16,20-pentaazaheptacyclo[26.5.3.1^3,70.1^9,130.0^12,160.0^21,260.0^31,35]octatriaconta-3(38),4,6,9(37),10,12,14,21,23,25,28,30,35-tridecaen-8-yl]acetic acid], in experiment [1] (setting [3]), the EC50 turned out to be 42 nM. At Keap1 (A321-C624) (h), the Kd was found to be 19.3 nM.
For `Cc1ccc2cc1CN1Cc3cc(ccc3OS1(=O)=O)OCCCCn1cc(nn1)C(=O)NC2CC(=O)O` (single isomer, unassigned) [Example 72a, [4-Methyl-10,25,25-trioxo-19,24-dioxa-25λ^6-thia-1,9,12,13,14-pentaazapentacyclo[18.5.3.1^3,70.1^11,140.0^23,27]triaconta-3(30),4,6,11(29),12,20,22,27-octaen-8-yl]acetic acid], in that order: more than 3160 nM and 23.6 nM.
For the molecule `Cc1ccc2cc1CN1Cc3cc(ccc3OS1(=O)=O)OCCCCn1cc(nn1)C(=O)NC2CC(=O)O` (single isomer, unassigned) [Example 72b, [4-Methyl-10,25,25-trioxo-19,24-dioxa-25λ^6-thia-1,9,12,13,14-pentaazapentacyclo[18.5.3.1^3,70.1^11,140.0^23,27]triaconta-3(30),4,6,11(29),12,20,22,27-octaen-8-yl]acetic acid], the EC50 in experiment [1] (setting [2]) is more than 3160 nM. Moreover, the Kd on Keap1 (A321-C624) (h) came to 730 nM.
On the same counts, the results for `Cc1ccc2cc1CN1Cc3cc(ccc3OS1(=O)=O)OCCCCCOc1cc(c(C)c3nnn(C)c13)C2CC(=O)O` (single isomer, unassigned) [Example 73a, [4,10,14-Trimethyl-29,29-dioxo-17,23,28-trioxa-29λ^6-thia-1,12,13,14-tetraazahexacyclo[22.5.3.1^3,70.1^9,160.0^11,150.0^27,31]tetratriaconta-3(34),4,6,9(33),10,12,15,24,26,31-decaen-8-yl]acetic acid] are 63.4 nM and 6.23 nM.
On the same counts, the results for `Cc1ccc2cc1CN1Cc3cc(ccc3OS1(=O)=O)OCCCCCOc1cc(c(C)c3nnn(C)c13)C2CC(=O)O` (single isomer, unassigned) [Example 73b, [4,10,14-Trimethyl-29,29-dioxo-17,23,28-trioxa-29λ^6-thia-1,12,13,14-tetraazahexacyclo[22.5.3.1^3,70.1^9,160.0^11,150.0^27,31]tetratriaconta-3(34),4,6,9(33),10,12,15,24,26,31-decaen-8-yl]acetic acid] are 707 nM and 17.6 nM.
Regarding `Cc1ccc2cc1[C@@H](C)N1Cc3cc(ccc3OS1(=O)=O)OCCCCn1nnc3c(C)c(ccc31)[C@@H]2CC(=O)O` [Example 3a, [(2R,8R)-2,4,31-Trimethyl-27,27-dioxo-21,26-dioxa-27λ^6-thia-1,14,15,16-tetraazahexacyclo[20.5.3.1^3,70.1^9,130.0^12,160.0^25,29]dotriaconta-3(32),4,6,9(31),10,12,14,22,24,29-decaen-8-yl]acetic acid], the EC50 in experiment [1] (setting [3]) stood at 79.5 nM. For the same molecule, on Keap1 (A321-C624) (h), the Kd was 7.64 nM.
On the same counts, the results for `Cc1ccc2cc1[C@@H](C)N1Cc3cc(ccc3OS1(=O)=O)OCCCCn1nnc3c(C)c(ccc31)[C@H]2CC(=O)O` [Example 3b, [(2R,8S)-2,4,31-trimethyl-27,27-dioxo-21,26-dioxa-27λ^6-thia-1,14,15,16-tetraazahexacyclo[20.5.3.1^3,70.1^9,130.0^12,160.0^25,29]dotriaconta-3(32),4,6,9(31),10,12,14,22,24,29-decaen-8-yl]acetic acid] are 10.6 nM and 1.05 nM.
Turning to `Cc1c2ccc3c1nnn3CCCCOc1ccc3c(c1)CN(Cc1cc(F)cc(c1)C2CC(=O)O)S(=O)(=O)O3` (stereo not shown) [Example 4, [5-Fluoro-31-methyl-27,27-dioxo-21,26-dioxa-27λ^6-thia-1,14,15,16-tetraazahexacyclo[20.5.3.1^3,70.1^9,130.0^12,160.0^25,29]dotriaconta-3(32),4,6,9(31),10,12,14,22,24,29-decaen-8-yl]acetic acid], the EC50 in experiment [1] (setting [3]) turned out to be 3470 nM. Further, the Kd at Keap1 (A321-C624) (h) came to 255 nM.
For `Cc1cc2cc(c1)C(CC(=O)O)c1ccc3c(nnn3CCCCOc3ccc4c(c3)CN(C2)S(=O)(=O)O4)c1C` (stereo not shown) [Example 5, [5,31-Dimethyl-27,27-dioxo-21,26-dioxa-27λ^6-thia-1,14,15,16-tetraazahexacyclo[20.5.3.1^3,70.1^9,130.0^12,160.0^25,29]dotriaconta-3(32),4,6,9(31),10,12,14,22,24,29-decaen-8-yl]acetic acid], in that order: 1810 nM and 131 nM.

A word on the EC50: it is the concentration needed to bring the measured effect to its halfway point.

Source of the values: patent US12643912B2, “Macrocyclic compounds, a process for their preparation and pharmaceutical compositions containing them” (LES LABORATOIRES SERVIER, priority 2020, dated 2026).
